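The compound was tested at five concentrations on cells cultured in 96-well plates, with a 48-hour exposure period. Here, GI50 denotes the concentration required for 50% inhibition of growth. At the TGI there is no net growth.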
Legend:
Test in all cases: NCI tumour cell line growth inhibition, 48 h
786-0 renal = tested on: 786-0 renal
A498 renal = tested on: A498 renal
A549 NSCLC = tested on: A549 NSCLC
ACHN renal = tested on: ACHN renal
BT-549 breast = tested on: BT-549 breast
CAKI-1 renal = tested on: CAKI-1 renal
CCRF-CEM leukemia = tested on: CCRF-CEM leukemia
COLO 205 colon = tested on: COLO 205 colon
DU-145 prostate = tested on: DU-145 prostate
EKVX NSCLC = tested on: EKVX NSCLC
HCC-2998 colon = tested on: HCC-2998 colon
HCT-116 colon = tested on: HCT-116 colon
HCT-15 colon = tested on: HCT-15 colon
HL-60(TB) leukemia = tested on: HL-60(TB) leukemia
HOP-62 NSCLC = tested on: HOP-62 NSCLC
HOP-92 NSCLC = tested on: HOP-92 NSCLC
HS 578T breast = tested on: HS 578T breast
HT29 colon = tested on: HT29 colon
IGROV1 ovarian = tested on: IGROV1 ovarian
K-562 leukemia = tested on: K-562 leukemia
KM12 colon = tested on: KM12 colon
LOX IMVI melanoma = tested on: LOX IMVI melanoma
M14 melanoma = tested on: M14 melanoma
MALME-3M melanoma = tested on: MALME-3M melanoma
MCF7 breast = tested on: MCF7 breast
MDA-MB-435 = tested on: MDA-MB-435
MDA-MB-468 breast = tested on: MDA-MB-468 breast
MOLT-4 leukemia = tested on: MOLT-4 leukemia
NCI-H226 lung = tested on: NCI-H226 lung
NCI-H23 lung = tested on: NCI-H23 lung
NCI-H460 lung = tested on: NCI-H460 lung
NCI-H522 lung = tested on: NCI-H522 lung
NCI/ADR-RES ovarian = tested on: NCI/ADR-RES ovarian
OVCAR-3 ovarian = tested on: OVCAR-3 ovarian
OVCAR-4 ovarian = tested on: OVCAR-4 ovarian
OVCAR-5 ovarian = tested on: OVCAR-5 ovarian
OVCAR-8 ovarian = tested on: OVCAR-8 ovarian
PC-3 prostate = tested on: PC-3 prostate
RPMI-8226 leukemia = tested on: RPMI-8226 leukemia
RXF 393 renal = tested on: RXF 393 renal
SF-268 CNS = tested on: SF-268 CNS
SF-295 CNS = tested on: SF-295 CNS
SF-539 CNS = tested on: SF-539 CNS
SK-MEL-2 melanoma = tested on: SK-MEL-2 melanoma
SK-MEL-28 melanoma = tested on: SK-MEL-28 melanoma
SK-MEL-5 melanoma = tested on: SK-MEL-5 melanoma
SK-OV-3 ovarian = tested on: SK-OV-3 ovarian
SN12C renal = tested on: SN12C renal
SNB-19 CNS = tested on: SNB-19 CNS
SNB-75 CNS = tested on: SNB-75 CNS
SW-620 colon = tested on: SW-620 colon
T-47D breast = tested on: T-47D breast
TK-10 renal = tested on: TK-10 renal
U251 CNS = tested on: U251 CNS
UACC-257 melanoma = tested on: UACC-257 melanoma
UACC-62 melanoma = tested on: UACC-62 melanoma
SR leukemia = tested on: SR leukemia
UO-31 renal = tested on: UO-31 renal

## CCCCCCCCCCCCCCCCCCCC(=O)NCCc1c[nH]c2ccc(OC(=O)CCCC(=O)OCCOOCCOOCCOOCCOOCCOOCCOOCCOOCCOOCCOOCCOOCCOOCCOC)cc12
786-0 renal
  GI50: > 100 µM
  TGI: > 100 µM
A498 renal
  GI50: > 100 µM
  TGI: > 100 µM
A549 NSCLC
  GI50: 21.7 µM
  TGI: 62.3 µM
ACHN renal
  GI50: 25.2 µM
  TGI: > 100 µM
BT-549 breast
  GI50: 4.15 µM
  TGI: 14 µM
CAKI-1 renal
  GI50: 34 µM
  TGI: > 100 µM
CCRF-CEM leukemia
  GI50: 0.769 µM
  TGI: 8.4 µM
COLO 205 colon
  GI50: > 100 µM
  TGI: > 100 µM
DU-145 prostate
  GI50: 24.8 µM
  TGI: > 100 µM
EKVX NSCLC
  GI50: 26.9 µM
  TGI: > 100 µM
HCC-2998 colon
  GI50: 44.7 µM
  TGI: > 100 µM
HCT-116 colon
  GI50: 30.7 µM
  TGI: > 100 µM
HCT-15 colon
  GI50: 31 µM
  TGI: > 100 µM
HL-60(TB) leukemia
  GI50: 2.53 µM
  TGI: 10.3 µM
HOP-62 NSCLC
  GI50: 26.7 µM
  TGI: > 100 µM
HOP-92 NSCLC
  GI50: 18.6 µM
  TGI: 44.8 µM
HS 578T breast
  GI50: 38.7 µM
  TGI: > 100 µM
HT29 colon
  GI50: 32.9 µM
  TGI: > 100 µM
IGROV1 ovarian
  GI50: 16.2 µM
  TGI: 38.9 µM
K-562 leukemia
  GI50: 5.59 µM
  TGI: 26.4 µM
KM12 colon
  GI50: 17.5 µM
  TGI: 52.6 µM
LOX IMVI melanoma
  GI50: 13.4 µM
  TGI: 33.1 µM
M14 melanoma
  GI50: 29 µM
  TGI: > 100 µM
MALME-3M melanoma
  GI50: 54.3 µM
  TGI: > 100 µM
MCF7 breast
  GI50: 24.1 µM
  TGI: > 100 µM
MDA-MB-435
  GI50: 41.2 µM
  TGI: > 100 µM
MDA-MB-468 breast
  GI50: 29.6 µM
  TGI: > 100 µM
MOLT-4 leukemia
  GI50: 4.61 µM
  TGI: 23 µM
NCI-H226 lung
  GI50: 14 µM
  TGI: 33.1 µM
NCI-H23 lung
  GI50: 18.9 µM
  TGI: 42.4 µM
NCI-H460 lung
  GI50: 27.9 µM
  TGI: > 100 µM
NCI-H522 lung
  GI50: 2.7 µM
  TGI: 9.36 µM
NCI/ADR-RES ovarian
  GI50: 21.8 µM
  TGI: 72 µM
OVCAR-3 ovarian
  GI50: 10.7 µM
  TGI: 25.6 µM
OVCAR-4 ovarian
  GI50: 20.8 µM
  TGI: 95.1 µM
OVCAR-5 ovarian
  GI50: 68 µM
  TGI: > 100 µM
OVCAR-8 ovarian
  GI50: 16 µM
  TGI: 38.5 µM
PC-3 prostate
  GI50: 11.6 µM
  TGI: 49.5 µM
RPMI-8226 leukemia
  GI50: 3.22 µM
  TGI: 26.5 µM
RXF 393 renal
  GI50: 18.9 µM
  TGI: 39.2 µM
SF-268 CNS
  GI50: 15.2 µM
  TGI: 47.1 µM
SF-295 CNS
  GI50: 15.7 µM
  TGI: 31.6 µM
SF-539 CNS
  GI50: 11 µM
  TGI: 25.3 µM
SK-MEL-2 melanoma
  GI50: 26.1 µM
  TGI: > 100 µM
SK-MEL-28 melanoma
  GI50: > 100 µM
  TGI: > 100 µM
SK-MEL-5 melanoma
  GI50: 40.8 µM
  TGI: > 100 µM
SK-OV-3 ovarian
  GI50: > 100 µM
  TGI: > 100 µM
SN12C renal
  GI50: 12.6 µM
  TGI: 33.2 µM
SNB-19 CNS
  GI50: 22.4 µM
  TGI: 62.8 µM
SNB-75 CNS
  GI50: > 100 µM
  TGI: > 100 µM
SW-620 colon
  GI50: 35.5 µM
  TGI: > 100 µM
T-47D breast
  GI50: 14.9 µM
  TGI: > 100 µM
TK-10 renal
  GI50: > 100 µM
  TGI: > 100 µM
U251 CNS
  GI50: 17.1 µM
  TGI: 33.9 µM
UACC-257 melanoma
  GI50: > 100 µM
  TGI: > 100 µM
UACC-62 melanoma
  GI50: 34.8 µM
  TGI: > 100 µM

## Cn1cc(-c2cc(N)n3nc(-c4c[nH]c5ccc(Cl)cc45)cc3n2)c2cccnc21
786-0 renal
  GI50: 1.56 µM
  TGI: 2.91 µM
A498 renal
  GI50: 20.1 µM
  TGI: 37.7 µM
ACHN renal
  GI50: 1.72 µM
  TGI: 3.17 µM
CAKI-1 renal
  GI50: 1.64 µM
  TGI: 3.5 µM
CCRF-CEM leukemia
  GI50: 2.51 µM
  TGI: 9.05 µM
COLO 205 colon
  GI50: 1.75 µM
  TGI: 3.27 µM
EKVX NSCLC
  GI50: 1.85 µM
  TGI: 4.53 µM
HCC-2998 colon
  GI50: 1.76 µM
  TGI: 3.2 µM
HCT-116 colon
  GI50: 1.81 µM
  TGI: 3.29 µM
HCT-15 colon
  GI50: 1.79 µM
  TGI: 3.94 µM
HL-60(TB) leukemia
  GI50: 1.8 µM
  TGI: 5.47 µM
HS 578T breast
  GI50: 1.97 µM
  TGI: 5.08 µM
K-562 leukemia
  GI50: 2.76 µM
  TGI: > 100 µM
KM12 colon
  GI50: 2.03 µM
  TGI: 4.18 µM
M14 melanoma
  GI50: 1.81 µM
  TGI: 3.42 µM
MALME-3M melanoma
  GI50: 1.62 µM
  TGI: 3.04 µM
MCF7 breast
  GI50: 1.77 µM
  TGI: 3.93 µM
MDA-MB-468 breast
  GI50: 1.56 µM
  TGI: 3.25 µM
NCI-H23 lung
  GI50: 1.71 µM
  TGI: 3.39 µM
OVCAR-3 ovarian
  GI50: 1.68 µM
  TGI: 3.27 µM
OVCAR-4 ovarian
  GI50: 1.79 µM
  TGI: 3.76 µM
OVCAR-5 ovarian
  GI50: 1.73 µM
  TGI: 3.62 µM
PC-3 prostate
  GI50: 2.54 µM
  TGI: 8.68 µM
RPMI-8226 leukemia
  GI50: 2.6 µM
  TGI: > 100 µM
RXF 393 renal
  GI50: 1.49 µM
  TGI: 2.9 µM
SF-268 CNS
  GI50: 2.06 µM
  TGI: 4.82 µM
SF-295 CNS
  GI50: 1.65 µM
  TGI: 3.13 µM
SF-539 CNS
  GI50: 1.62 µM
  TGI: 3.01 µM
SK-MEL-2 melanoma
  GI50: 12.3 µM
  TGI: 24.7 µM
SK-MEL-28 melanoma
  GI50: 1.53 µM
  TGI: 2.9 µM
SK-MEL-5 melanoma
  GI50: 1.65 µM
  TGI: 3.06 µM
SK-OV-3 ovarian
  GI50: 2.03 µM
  TGI: 4.76 µM
SN12C renal
  GI50: 1.52 µM
  TGI: 3.13 µM
SNB-19 CNS
  GI50: 2.6 µM
  TGI: 6.74 µM
SR leukemia
  GI50: 2.3 µM
  TGI: > 100 µM
TK-10 renal
  GI50: 2.02 µM
  TGI: 4.64 µM
UACC-257 melanoma
  GI50: 1.9 µM
  TGI: 3.87 µM
UACC-62 melanoma
  GI50: 1.63 µM
  TGI: 3.07 µM
UO-31 renal
  GI50: 1.55 µM
  TGI: 3.05 µM

From PubChem BioAssay (NCI)
